Reference: US6391919B1, “Bis-amino acid sulfonamides containing substituted benzyl amines HIV protease inhibitors” (Bristol-Myers Squibb Pharma Company, priority 2000, dated 2002)
≈ marks a conversion by molar mass, not a printed value.

Test system: HIV-1 (RF)
Test: HIV RNA assay: microplate based compound evaluation in HIV-1 infected MT-2 cells
Format: cell-based
Conditions: Human immunodeficiency virus 1, MT2, 72 h; HIV-1 (RF) infected MT-2 cells, 3 days of culture; virus dilutions selected to standardize the inoculum to this value; read-out: IC90 value (concentration of compound required to reduce the HIV RNA level by 90%)
Protocol: Plasmid pDAB 72 containing both gag and pol sequences of BH 10 (bp 113-1816) cloned into PTZ 19R was prepared according to Erickson-Viitanen et al. AIDS Research and Human Retroviruses 1989, 5, 577. The plasmid was linearized with Bam HI prior to the generation of in vitro RNA transcripts using the Riboprobe Gemini system 11 kit (Promega) with T7 RNA polymerase. Synthesized RNA was purified by treatment with RNase free DNAse (Promega), phenol-chloroform extraction, and ethanol precipitation. RNA transcripts were dissolved in water, and stored at −70° C. The concentration of RNA was determined from the A260.
Biotinylated capture probes were purified by HPLC after synthesis on an Applied Biosystems (Foster City, Calif.) DNA synthesizer by addition of biotin to the 5′ terminal end of the oligonucleotide, using the biotin-phosphoramidite reagent of Cocuzza, Tet. Lett. 1989, 30, 6287. […]
MT-2 and MTA cells were maintained in RPM 1640 supplemented with 5% fetal calf serum (FCS) for MT-2 cells or 10% FCS for MTA cells, 2 mM L-glutamine and 50 μg/mL gentamycin, all from Gibco. […] Infectious titers of HIV-1 (RF) stocks were 1-3×10^7 PFU (plaque forming units)/mL as measured by plaque assay on MT-2 cells (see below). […]

Which IC90 does the source give for Nc1ccn([C@H]2CC[C@@H](CO)O2)c(=O)n1 [ddC, dideoxycytidine] here?
The IC90 was 0.2 µg/mL (≈ 0.947 µM).
